Test results from PubChem BioAssay (NCI).
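1) Cells in 96-well plates. 2) Compound, 48 h, 5 concentrations. 3) Linear interpolation between surrounding doses. 4) Unreached endpoint = highest concentration. Here, GI50 denotes the concentration required for 50% inhibition of growth. TGI denotes the concentration required for complete inhibition of growth.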

Assays:
Assay in all cases: DTP human tumour cell line panel, 48 h
[1] = tested on: 786-0 renal
[2] = tested on: COLO 205 colon
[3] = tested on: KM12 colon
[4] = tested on: MDA-N
[5] = tested on: SF-268 CNS
[6] = tested on: SK-MEL-28 melanoma
[7] = tested on: SN12C renal
[8] = tested on: T-47D breast
[9] = tested on: HOP-92 NSCLC
[10] = tested on: DLD-1 colon
[11] = tested on: DMS 114 small cell lung
[12] = tested on: M19-MEL melanoma
[13] = tested on: XF 498 CNS

| SMILES | TGI [1] | TGI [2] | TGI [3] | TGI [4] | TGI [5] | TGI [6] | TGI [7] | TGI [8] | GI50 [2] | GI50 [5] | GI50 [6] | GI50 [7] | GI50 [8] | TGI [9] | TGI [10] | TGI [11] | TGI [12] | TGI [13] | GI50 [9] | GI50 [3] |
| --- | --- | --- | --- | --- | --- | --- | --- | --- | --- | --- | --- | --- | --- | --- | --- | --- | --- | --- | --- | --- |
| CCC(CS(=O)(=O)O)[N+](=O)[O-] (stereo unspecified) | > 100 µM | > 100 µM | > 100 µM | > 100 µM | > 100 µM | > 100 µM | > 100 µM | > 100 µM | – | – | – | – | – | – | – | – | – | – | – | – |
| O=C(CCCn1c(=O)c2sc3ccccc3c2n2nnc(-c3ccccc3)c12)NCCc1cnc[nH]1 | – | 4.8 µM | – | – | 3.72 µM | 3.2 µM | 1.87 µM | 4.49 µM | 1.1 µM | 1.77 µM | 1.75 µM | 0.271 µM | 1.4 µM | – | – | – | – | – | – | – |
| CC(CN(C)C)C(=O)c1ccccc1C(=O)O (stereo unspecified) | > 100 µM | 66.3 µM | > 100 µM | > 100 µM | > 100 µM | > 100 µM | 81.2 µM | > 100 µM | – | – | – | – | – | > 100 µM | – | – | – | – | – | – |
| Cc1nc(Cl)c(Cl)c(Cl)n1 | 1.47 µM | 1.42 µM | 1 µM | 3.15 µM | 4.27 µM | 1.2 µM | 1.26 µM | 7.71 µM | – | – | – | – | – | 0.849 µM | – | – | – | – | – | – |
| C=C(C)[C@@H]1CC[C@]2(C)CC[C@]3(C)[C@H](CC[C@@H]4[C@@]5(C)CC[C@H](OC(=O)c6ccccc6)C(C)(C)[C@@H]5CC[C@]43C)[C@@H]12 | > 100 µM | > 100 µM | > 100 µM | > 100 µM | > 100 µM | > 100 µM | > 100 µM | > 100 µM | – | – | – | – | – | > 100 µM | – | – | – | – | – | – |
| Cn1c(NN)nc(-c2ccc([N+](=O)[O-])cc2)c(C#N)c1=O | 27.2 µM | 47.7 µM | 30.1 µM | 24.9 µM | 31.1 µM | 25 µM | 29 µM | 30.9 µM | – | – | – | – | – | – | – | – | – | – | – | – |
| CNC(C)Cc1ccccc1O (stereo unspecified) | > 100 µM | > 100 µM | > 100 µM | – | > 100 µM | > 100 µM | > 100 µM | – | – | – | – | – | – | > 100 µM | > 100 µM | > 100 µM | – | – | – | – |
| Nc1ccc2c(c1)C1=NNC(=O)CC1C2 (stereo unspecified) | – | > 100 µM | > 100 µM | – | > 100 µM | > 100 µM | > 100 µM | – | – | – | – | – | – | > 100 µM | > 100 µM | > 100 µM | > 100 µM | > 100 µM | – | – |
| COc1cc(-c2n/c(=C\c3c(O)[nH]c4ccc(Cl)cc34)cc3c2=Nc2ccccc2-3)cc(OC)c1OC | – | 3.81 µM | 5.61 µM | – | 3.95 µM | 4.41 µM | 2.36 µM | 3.21 µM | 1.35 µM | 1.6 µM | 2.04 µM | 0.754 µM | 1.28 µM | 3.32 µM | – | – | – | – | 1.32 µM | 1.72 µM |
